From patent publication US11084800B2 (Achillion Pharmaceuticals, Inc., priority 2017, dated 2021)

Target: Human Factor D (Homo sapiens (Human), UniProt P00746)
Experiment: Human Factor D Assay
Assay type: biochemical
Settings: Factor D inhibition, assay of Example 10; read-out: IC5 (Stars)
Outline: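 Thioester substrate Z-L-Lys-SBz (100 μM) with Ellman's reagent DTNB (100 μM) reports activity of 80 nM human serum-derived enzyme, kinetically at 405 nm over 30 min. Compound preincubated 5 min, room temperature, pH 7.5 Tris/1 M NaCl; IC50 by nonlinear fit of rates.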

Chain of Human Factor D (P00746 26-253): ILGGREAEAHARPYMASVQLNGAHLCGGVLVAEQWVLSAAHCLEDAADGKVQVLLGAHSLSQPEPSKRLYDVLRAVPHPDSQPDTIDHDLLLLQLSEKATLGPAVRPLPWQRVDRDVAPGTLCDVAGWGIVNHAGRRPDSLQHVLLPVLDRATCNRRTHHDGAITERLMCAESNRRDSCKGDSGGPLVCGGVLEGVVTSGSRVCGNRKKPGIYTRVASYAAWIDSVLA

`CC(=O)c1nn(CC(=O)N2[C@H](C(=O)NCc3cccc(Cl)c3F)C[C@@]3(Cc4nnc(C)o4)C[C@@H]23)c2c(C)cc(-c3cnc(C)nc3)cc12` [Compound 434, (1R,3S,5R)-2-(2-(3-acetyl-7-methyl-5-(2-methylpyrimidin-5-yl)-1H-indazol-1-yl)acetyl)-N-(3-chloro-2-fluorobenzyl)-5-((5-methyl-1,3,4-oxadiazol-2-yl)methyl)-2-azabicyclo[3.1.0]hexane-3-carboxamide] was tested. Which IC50 did it give?
Its IC50 is < 1000 nM.

For `CC(=O)c1nn(CC(=O)N2[C@H](C(=O)Nc3nc(C(F)(F)F)ccc3C)C[C@@]3(Cc4nnc(C)o4)C[C@@H]23)c2c(C)cc(-c3cnc(C)nc3)cc12` [Compound 435, (1R,3S,5R)-2-(2-(3-acetyl-7-methyl-5-(2-methylpyrimidin-5-yl)-1H-indazol-1-yl)acetyl)-5-((5-methyl-1,3,4-oxadiazol-2-yl)methyl)-N-(3-methyl-6-(trifluoromethyl)pyridin-2-yl)-2-azabicyclo[3.1.0]hexane-3-carboxamide], which IC50 is on record?
Its IC50 is < 1000 nM.

For `Cc1ncc(-c2cc3c(C(N)=O)nn(CC(=O)N4C[C@H]5C[C@H]5[C@H]4C(=O)Nc4nc(Br)ccc4C)c3c(C)n2)cn1` [Compound 436, 1-(2-((1R,25,5S)-2-((6-bromo-3-methylpyridin-2-yl)carbamoyl)-3-azabicyclo[3.1.0]hexan-3-yl)-2-oxoethyl)-7-methyl-5-(2-methylpyrimidin-5-yl)-1H-pyrazolo[3,4-c]pyridine-3-carboxamide], which IC50 is on record?
Its IC50 is < 1000 nM.

`CSCc1cc(F)c(Br)nc1NC(=O)[C@@H]1C[C@@]2(C)C[C@H]2N1C(=O)Cn1nc(C(C)=O)c2cc(-c3cnc(C)nc3)ccc21` [Compound 438, (1R,5R)-2-(2-(3-Acetyl-5-(2-methylpyrimidin-5-yl)-1H-indazol-1-yl)acetyl)-N-(6-bromo-5-fluoro-3-((methylthio)methyl)pyridin-2-yl)-5-methyl-2-azabicyclo[3.1.0]hexane-3-carboxamide] was tested. Which IC50 did it give?
Its IC50 is < 1000 nM.

How did the IC50 turn out when `CC(=O)c1nn(CC(=O)N2C[C@H](F)C[C@H]2C(=O)Nc2cccc(I)n2)c2ccc(-c3cnc(C)nc3)cc12` [Compound 439, (2S,4R)-1-(2-(3-acetyl-5-(2-methylpyrimidin-5-yl)-1H-indazol-1-yl)acetyl)-4-fluoro-N-(6-iodopyridin-2-yl)pyrrolidine-2-carboxamide] was run?
Its IC50 is < 1000 nM.

How did the IC50 turn out when `CC(=O)c1nn(CC(=O)N2C[C@H](F)C[C@H]2C(=O)Nc2ccccn2)c2ccc(-c3cnc(C)nc3)cc12` [Compound 440, (2S,4R)-1-(2-(3-acetyl-5-(2-methylpyrimidin-5-yl)-1H-indazol-1-yl)acetyl)-4-fluoro-N-(pyridin-2-yl)pyrrolidine-2-carboxamide] was run?
The IC50 was < 1000 nM.

`CC(=O)c1nn(CC(=O)N2[C@H](C(=O)Nc3nc(Br)ccc3C)C[C@@]3(CNc4ccn(CC(F)(F)F)n4)C[C@@H]23)c2c(C)cc(-c3cnc(C)nc3)cc12` [Compound 441, (1R,3S,5R)-2-(2-(3-acetyl-7-methyl-5-(2-methylpyrimidin-5-yl)-1H-indazol-1-yl)acetyl)-N-(6-bromo-3-methylpyridin-2-yl)-5-(((1-(2,2,2-trifluoroethyl)-1H-pyrazol-3-yl)amino)methyl)-2-azabicyclo[3.1.0]hexane-3-carboxamide] was tested. Which IC50 did it give?
Its IC50 is < 1000 nM.

`Cc1ncc(-c2ccc3c(cnn3CC(=O)N3C[C@H](F)C[C@H]3C(=O)Nc3cccc(Br)n3)c2)cn1` [Compound 444, (2S,4R)-N-(6-bromopyridin-2-yl)-4-fluoro-1-(2-(5-(2-methylpyrimidin-5-yl)-1H-indazol-1-yl)acetyl)pyrrolidine-2-carboxamide] was tested. Which IC50 did it give?
The IC50 was 1000 to 10000 nM.

With `CCc1nn(CC(=O)N2C[C@H](F)C[C@H]2C(=O)Nc2cccc(Br)n2)c2ccc(-c3cnc(C)nc3)cc12` [Compound 445, (2S,4R)-N-(6-bromopyridin-2-yl)-1-(2-(3-ethyl-5-(2-methylpyrimidin-5-yl)-1H-indazol-1-yl)acetyl)-4-fluoropyrrolidine-2-carboxamide] as the compound, how does the IC50 read?
The IC50 was 1000 to 10000 nM.

With `CC(=O)c1nn(CC(=O)N2C[C@H](F)C[C@H]2C(=O)N(C)c2cccc(Br)n2)c2ccc(-c3cnc(C)nc3)cc12` [Compound 446, (2S,4R)-1-(2-(3-acetyl-5-(2-methylpyrimidin-5-yl)-1H-indazol-1-yl)acetyl)-N-(6-bromopyridin-2-yl)-4-fluoro-N-methylpyrrolidine-2-carboxamide] as the compound, how does the IC50 read?
Its IC50 is > 10000 nM.

For `CC(=O)c1nn(CC(=O)N2[C@H](C(=O)Nc3cncc(Br)n3)C[C@@]3(Cc4nc(C)no4)C[C@@H]23)c2c(C)cc(-c3cnc(C)nc3)cc12` [Compound 447, (1R,3S,5R)-2-(2-(3-acetyl-7-methyl-5-(2-methylpyrimidin-5-yl)-1H-indazol-1-yl)acetyl)-N-(6-bromopyrazin-2-yl)-5-((3-methyl-1,2,4-oxadiazol-5-yl)methyl)-2-azabicyclo[3.1.0]hexane-3-carboxamide], which IC50 is on record?
Its IC50 is < 1000 nM.

`CC(=O)c1cn(CC(=O)N2[C@H](C(=O)Nc3nc(OC(F)(F)F)ccc3C)C[C@@]3(C)C[C@@H]23)c2c(C)cc(-c3cnc(C)nc3)cc12` [Compound 448, (1R,3S,5R)-2-(2-(3-acetyl-7-methyl-5-(2-methylpyrimidin-5-yl)-1H-indo1-1-yl)acetyl)-5-methyl-N-(3-methyl-6-(trifluoromethoxy)pyridin-2-yl)-2-azabicyclo[3.1.0]hexane-3-carboxamide] was tested. Which IC50 did it give?
Its IC50 is < 1000 nM.

How did the IC50 turn out when `CC(=O)c1nn(CC(=O)N2[C@H](C(=O)Nc3cccc(Oc4ccccn4)n3)C[C@@]3(C)C[C@@H]23)c2c(C)cc(-c3cnc(C)nc3)cc12` [Compound 449, (1R,3S,5R)-2-(2-(3-acetyl-7-methyl-5-(2-methylpyrimidin-5-yl)-1H-indazol-1-yl)acetyl)-5-methyl-N-(6-(pyridin-2-yloxy)pyridin-2-yl)-2-azabicyclo[3.1.0]hexane-3-carboxamide] was run?
Its IC50 is < 1000 nM.

Which IC50 does the source give for `CC(=O)c1nn(CC(=O)N2[C@H](C(=O)Nc3nc(-c4ccccn4)ccc3C)C[C@@]3(C)C[C@@H]23)c2ccc(-c3cnc(C)nc3)cc12` [Compound 450, (1R,3S,5R)-2-(2-(3-acetyl-5-(2-methylpyrimidin-5-yl)-1H-indazol-1-yl)acetyl)-5-methyl-N-(5-methyl-[2,2′-bipyridin]-6-yl)-2-azabicyclo[3.1.0]hexane-3-carboxamide] here?
The IC50 was 1000 to 10000 nM.

Which IC50 does the source give for `CC(=O)c1nn(CC(=O)N2[C@H](C(=O)Nc3cccc(-n4ccccc4=O)n3)C[C@@]3(C)C[C@@H]23)c2c(C)cc(-c3cnc(C)nc3)cc12` [Compound 451, (1R,3S,5R)-2-(2-(3-acetyl-7-methyl-5-(2-methylpyrimidin-5-yl)-1H-indazol-1-yl)acetyl)-5-methyl-N-(2-oxo-2H-[1,2′-bipyridin]-6′-yl)-2-azabicyclo[3.1.0]hexane-3-carboxamide] here?
Its IC50 is < 1000 nM.

For `CC(=O)c1nn(CC(=O)N2[C@H](C(=O)Nc3nc(Br)ccc3C)C[C@@]3(C)C[C@@H]23)c2ccc(-c3ccncc3)cc12` [Compound 452, (1R,3S,5R)-2-(2-(3-acetyl-5-(pyridin-4-yl)-1H-indazol-1-yl)acetyl)-N-(6-bromo-3-methylpyridin-2-yl)-5-methyl-2-azabicyclo[3.1.0]hexane-3-carboxamide], which IC50 is on record?
The IC50 was < 1000 nM.

How did the IC50 turn out when `CC(=O)c1nn(CC(=O)N2[C@H](C(=O)Nc3nc(Br)ccc3C)C[C@@]3(C)C[C@@H]23)c2ccc(-c3ccc(C)cn3)cc12` [Compound 453, (1R,3S,5R)-2-(2-(3-acetyl-5-(5-methylpyridin-2-yl)-1H-indazol-1-yl)acetyl)-N-(6-bromo-3-methylpyridin-2-yl)-5-methyl-2-azabicyclo[3.1.0]hexane-3-carboxamide] was run?
Its IC50 is < 1000 nM.

With `CC(=O)c1nn(CC(=O)N2[C@H](C(=O)Nc3cc(C)cc(Br)n3)C[C@@]3(C)C[C@@H]23)c2c(C)cc(-c3cnc(C)nc3)cc12` [Compound 456, (1R,3S,5R)-2-(2-(3-acetyl-7-methyl-5-(2-methylpyrimidin-5-yl)-1H-indazol-1-yl)acetyl)-N-(6-bromo-4-methylpyridin-2-yl)-5-methyl-2-azabicyclo[3.1.0]hexane-3-carboxamide] as the compound, how does the IC50 read?
Its IC50 is < 1000 nM.

`CC(=O)c1cn(CC(=O)N2[C@H](C(=O)Nc3nc(Br)c(F)cc3C)C[C@@]3(C)C[C@@H]23)c2ccc(-c3cnc(C)nc3)cc12` [Compound 457, (1R,3S,5R)-2-(2-(3-acetyl-5-(2-methylpyrimidin-5-yl)-1H-indol-1-yl)acetyl)-N-(6-bromo-5-fluoro-3-methylpyridin-2-yl)-5 methyl-2-azabicyclo[3.1.0]hexane-3-carboxamide] was tested. Which IC50 did it give?
Its IC50 is < 1000 nM.

Same assay, conditions: Table 8; Factor D 80 nM, substrate Z-L-Lys-SBz; read-out: IC50

For `CC(=O)c1nn(CC(=O)N2[C@H](C(=O)Nc3nc(Br)ccc3C)C[C@@]3(CNC(=O)COCCOCCNC(=O)COCCOCCNC(=O)CC[C@H](NC(=O)CCCCCCCCCCCCCCCCC(=O)O)C(=O)O)C[C@@H]23)c2cnc(-c3cnc(C)nc3)cc12` [Compound 442, (S)-1-((1R,3S,5R)-2-(2-(3-acetyl-5-(2-methylpyrimidin-5-yl)-1H-pyrazolo[3,4-c]pyridin-1-yl)acetyl)-3-((6-bromo-3-methylpyridin-2-yl)carbamoyl)-2-azabicyclo[3.1.0]hexan-5-yl)-24-carboxy-3,12,21,26-tetraoxo-5,8,14,17-tetraoxa-2,11,20,25-tetraazatritetracontan-43-oic acid], which IC50 is on record?
Its IC50 is < 1000 nM.

For `CCCCCCCCCCCCCCCC(=O)NCCCC[C@H](NC(=O)[C@H](CCC(=O)O)NC(=O)[C@H](Cc1ccc(O)cc1)NC(=O)[C@H](CCC(=O)O)NC(C)=O)C(=O)N[C@@H](CCC(=O)O)C(=O)N[C@@H](Cc1ccc(O)cc1)C(=O)N[C@@H](CCC(=O)O)C(=O)NC[C@@]12C[C@@H](C(=O)Nc3nc(Br)ccc3C)N(C(=O)Cn3nc(C(C)=O)c4cc(-c5cnc(C)nc5)cc(C)c43)[C@@H]1C2` [Compound 443, (4S,7S,10S,13S,16S,19S,22S)-22-acetamido-4-((((1R,3S,5R)-2-(2-(3-acetyl-7-methyl-5-(2-methylpyrimidin-5-yl)-1H-indazol-1-yl)acetyl)-3-((6-bromo-3-methylpyridin-2-yl)carbamoyl)-2-azabicyclo[3.1.0]hexan-5-yl)methyl)carbamoyl)-10,16-bis(2-carboxyethyl)-7,19-bis(4-hydroxybenzyl)-6,9,12,15,18,21-hexaoxo-13-(4-palmitamidobutyl)-5,8,11,14,17,20-hexaazapentacosanedioic acid], which IC50 is on record?
Its IC50 is 1000 to 10000 nM.
